Test results: patent US10023592B2, “Bromodomain inhibitors” (Celgene Quanticel Research, Inc., priority 2013, dated 2018)

Legend:
[1] = test system: Raji, human Burkitts lymphoma cells; assay: Cell-MTS proliferation assay, Raji; type: cell-based; conditions: Homo sapiens; Cell-MTS proliferation, Raji cells, 168 hr
Method in brief: (§1)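 Seeded for ~90% confluence at 7 days (Raji 15,000, HL-60 5,000, NCI-H460 3,000 cells/well); compound added 24 h post-plating as 11-point dilution, 100 μM to 2.0 nM final.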

[2] = test system: HL-60, human proleukemia cells; assay: Cell-MTS proliferation assay, HL-60; type: cell-based; conditions: Homo sapiens; Cell-MTS proliferation, HL-60 cells, 168 hr
Method in brief: as §1

[3] = test system: NCI-H460, human non-small cell lung cancer cells; assay: Cell-MTS proliferation assay, NCI-H460; type: cell-based; conditions: Homo sapiens; Cell-MTS proliferation, NCI-H460 cells, 168 hr
Method in brief: as §1

[4] = biological target: BRD4(BD1) (Homo sapiens (Human), UniProt O60885); assay: In vitro enzyme inhibition assay (BRD4 AlphaScreen); type: binding; conditions: in vitro enzyme inhibition assay
Method in brief: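 His-tagged BRD4 tested by AlphaScreen for binding of biotinylated H4K5/8/12/16-tetraacetyl peptide. After 20 min at room temperature, streptavidin donor and nickel chelate acceptor beads added (5 μg/mL final each). IC50 determined.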

Row | SMILES | IC50 [1] [µM] | IC50 [2] [µM] | IC50 [3] [µM] | IC50 [4] [µM]
1 | Cn1cc(-c2cccc(NS(C)(=O)=O)c2)cc(O)c1=O [Example 467, N-[3-(5-hydroxy-1-methyl-6-oxopyridin-3-yl)phenyl]methanesulfonamide] | > 5 | > 5 | > 5 | 0.5 to 5
2 | Cn1cc(-c2cc(S(C)(=O)=O)ccc2NCC2CC2)ccc1=O [Example 468, 5-[2-(cyclopropylmethylamino)-5-methylsulfonylphenyl]-1-methylpyridin-2-one] | > 5 | 0.5 to 5 | > 5 | < 0.5
3 | CCOc1ccc(S(=O)(=O)CC)cc1-c1cc(N(C)C)c(=O)n(C)c1 [Example 469, 3-(dimethylamino)-5-(2-ethoxy-5-ethylsulfonylphenyl)-1-methylpyridin-2-one] | < 0.5 | < 0.5 | > 5 | < 0.5
4 | Cn1cc(-c2cc(CS(C)(=O)=O)ccc2Oc2ccc(F)cc2F)ccc1=O [Example 470, 5-[2-(2,4-difluorophenoxy)-5-(methylsulfonylmethyl)phenyl]-1-methylpyridin-2-one] | < 0.5 | < 0.5 | 0.5 to 5 | < 0.5
5 | CCS(=O)(=O)Nc1ccc(Oc2ccc(F)cc2F)c(-c2cc(C)c(=O)n(C)c2)c1 [Example 472, N-[4-(2,4-difluorophenoxy)-3-(1,5-dimethyl-6-oxopyridin-3-yl)phenyl]ethanesulfonamide] | < 0.5 | < 0.5 | > 5 | < 0.5
6 | CCS(=O)(=O)c1ccc(NCC2CC2)c(-c2ccc(=O)n(C)c2)c1 [Example 473, 5-[2-(cyclopropylmethylamino)-5-ethylsulfonylphenyl]-1-methylpyridin-2-one] | 0.5 to 5 | < 0.5 | > 5 | < 0.5
7 | CN(C)c1cc(-c2cc(S(C)(=O)=O)ccc2OCC2CC2)cn(C)c1=O [Example 474, 5-[2-(cyclopropylmethoxy)-5-methylsulfonylphenyl]-3-(dimethylamino)-1-methylpyridin-2-one] | < 0.5 | < 0.5 | > 5 | < 0.5
8 | Cc1cc(-c2cc(S(C)(=O)=O)ccc2OCC2CC2)cn(C)c1=O [Example 476, 5-[2-(cyclopropylmethoxy)-5-methylsulfonylphenyl]-1,3-dimethylpyridin-2-one] | 0.5 to 5 | < 0.5 | > 5 | < 0.5
9 | Cc1cc(=O)n(C)cc1-c1cc(S(C)(=O)=O)ccc1OCC1CC1 [Example 477, 5-[2-(cyclopropylmethoxy)-5-methylsulfonylphenyl]-1,4-dimethylpyridin-2-one] | 0.5 to 5 | < 0.5 | > 5 | < 0.5
10 | Cc1cc(-c2cc(S(C)(=O)=O)cc3c2OC(C)C3)cn(C)c1=O (stereo not drawn) [Example 486, 1,3-dimethyl-5-(2-methyl-5-methylsulfonyl-2,3-dihydro-1-benzofuran-7-yl)pyridin-2-one] | > 5 | 0.5 to 5 | > 5 | 0.5 to 5
11 | CCS(=O)(=O)Cc1ccc(OCC(F)(F)F)c(-c2cn(C)c(=O)c3ccccc23)c1 [Example 487, 4-[5-(ethylsulfonylmethyl)-2-(2,2,2-trifluoroethoxy)phenyl]-2-methylisoquinolin-1-one] | < 0.5 | < 0.5 | > 5 | < 0.5
12 | Cn1cc(-c2cc(CS(C)(=O)=O)ccc2OCC(F)(F)F)c2ccccc2c1=O [Example 488, 2-methyl-4-[5-(methylsulfonylmethyl)-2-(2,2,2-trifluoroethoxy)phenyl]isoquinolin-1-one] | < 0.5 | < 0.5 | > 5 | < 0.5
13 | COCC1COc2cc(S(C)(=O)=O)cc(-c3cn(C)c(=O)c4ccccc34)c2O1 (stereo not drawn) [Example 497, 4-[3-(methoxymethyl)-7-methylsulfonyl-2,3-dihydro-1,4-benzodioxin-5-yl]-2-methylisoquinolin-1-one] | 0.5 to 5 | 0.5 to 5 | > 5 | < 0.5
14 | COCC1COc2cc(S(C)(=O)=O)cc(-c3cc(C)c(=O)n(C)c3)c2O1 (stereo not drawn) [Example 498, 5-[3-(methoxymethyl)-7-methylsulfonyl-2,3-dihydro-1,4-benzodioxin-5-yl]-1,3-dimethylpyridin-2-one] | > 5 | 0.5 to 5 | > 5 | < 0.5
15 | COCC1COc2c(cc(S(C)(=O)=O)cc2-c2cn(C)c(=O)c3ccccc23)O1 (stereo not drawn) [Example 501, 4-[2-(methoxymethyl)-7-methylsulfonyl-2,3-dihydro-1,4-benzodioxin-5-yl]-2-methylisoquinolin-1-one] | 0.5 to 5 | 0.5 to 5 | > 5 | < 0.5
